What was measured:
[1] = Particle size distribution by dynamic image analysis (Camsizer X2 with X-Jet module); assay type: physicochemical
Method: Said preferred particle size distribution is determined by means of dynamic image analysis (Camsizer X2 from Retsch with X-Jet module), wherein a dispersion pressure of 5, 20, or 460 kPa was applied. The evaluation was carried out in three size models, namely:
Xc(min) Particle width which is determined from the narrowest of all measured chords xc;
XFe(max) Particle length which is determined from the longest of all measured Feret diameters xFe;
Xarea Equivalent particle diameter which corresponds to the circle equivalent diameter.

[2] = cited from earlier work

| SMILES | Minimum d10 XFe(max) ([1]; dispersion pressure 5 kPa) | Minimum d10 Xarea ([1]; dispersion pressure 5 kPa) | Minimum d10 Xc(min) ([1]; dispersion pressure 5 kPa) | Minimum d50 XFe(max) ([1]; dispersion pressure 5 kPa) | Minimum d50 Xarea ([1]; dispersion pressure 5 kPa) | Minimum d50 Xc(min) ([1]; dispersion pressure 5 kPa) | Minimum d90 XFe(max) ([1]; dispersion pressure 5 kPa) | Minimum d90 Xarea ([1]; dispersion pressure 5 kPa) | Minimum d90 Xc(min) ([1]; dispersion pressure 5 kPa) | Minimum d10 XFe(max) ([1]; dispersion pressure 20 kPa) | Minimum d10 Xarea ([1]; dispersion pressure 20 kPa) | Minimum d10 Xc(min) ([1]; dispersion pressure 20 kPa) | Minimum d50 XFe(max) ([1]; dispersion pressure 20 kPa) | Minimum d50 Xarea ([1]; dispersion pressure 20 kPa) | Minimum d50 Xc(min) ([1]; dispersion pressure 20 kPa) | Minimum d90 XFe(max) ([1]; dispersion pressure 20 kPa) | Minimum d90 Xarea ([1]; dispersion pressure 20 kPa) | Minimum d90 Xc(min) ([1]; dispersion pressure 20 kPa) | Minimum d10 XFe(max) ([1]; dispersion pressure 460 kPa) | Minimum d10 Xarea ([1]; dispersion pressure 460 kPa) | other results |
| --- | --- | --- | --- | --- | --- | --- | --- | --- | --- | --- | --- | --- | --- | --- | --- | --- | --- | --- | --- | --- | --- |
| O=C(CO)C(O)C(O)C(O)CO (stereo not shown) [Comparative Example V1, allulose] | 90 μm | 75 μm | 60 μm | 210 μm | 175 μm | 130 μm | 320 μm | 255 μm | 215 μm | 60 μm | 50 μm | 40 μm | 185 μm | 170 μm | 110 μm | 315 μm | 250 μm | 210 μm | 1 μm | 2 μm | Minimum d10 Xc(min) ([1]; dispersion pressure 460 kPa): 2 μm; Minimum d50 XFe(max) ([1]; dispersion pressure 460 kPa): 55 μm; Minimum d50 Xarea ([1]; dispersion pressure 460 kPa): 40 μm; Minimum d50 Xc(min) ([1]; dispersion pressure 460 kPa): 30 μm; Minimum d90 XFe(max) ([1]; dispersion pressure 460 kPa): 150 μm; Minimum d90 Xarea ([1]; dispersion pressure 460 kPa): 110 μm; Minimum d90 Xc(min) ([1]; dispersion pressure 460 kPa): 110 μm |
| O=C(CO)C(O)C(O)C(O)CO (stereo not shown) [Example 1, allulose] | 105 μm | 90 μm | 72 μm | 230 μm | 190 μm | 150 μm | 350 μm | 270 μm | 235 μm | 75 μm | 75 μm | 55 μm | 220 μm | 195 μm | 125 μm | 335 μm | 280 μm | 225 μm | 10 μm | 12 μm | Minimum d10 Xc(min) ([1]; dispersion pressure 460 kPa): 12 μm; Minimum d50 XFe(max) ([1]; dispersion pressure 460 kPa): 70 μm; Minimum d50 Xarea ([1]; dispersion pressure 460 kPa): 55 μm; Minimum d50 Xc(min) ([1]; dispersion pressure 460 kPa): 45 μm; Minimum d90 XFe(max) ([1]; dispersion pressure 460 kPa): 175 μm; Minimum d90 Xarea ([1]; dispersion pressure 460 kPa): 135 μm; Minimum d90 Xc(min) ([1]; dispersion pressure 460 kPa): 135 μm |
| C=C1C[C@@]23CC[C@H]4[C@@](C)(CCC[C@@]4(C)C(=O)O[C@@H]4O[C@H](CO)[C@@H](O)[C@H](O)[C@H]4O)[C@@H]2CC[C@]1(O[C@@H]1O[C@H](CO)[C@@H](O)[C@H](O)[C@H]1O[C@@H]1O[C@H](CO)[C@@H](O)[C@H](O)[C@H]1O)C3 [stevioside] |  |  |  |  |  |  |  |  |  |  |  |  |  |  |  |  |  |  |  |  | Daily intake considered harmless [2]: up to 4 mg per kilogram of body weight |

Reference: patent US20230139835A1, “ALLULOSE IN CRYSTALLINE FORM” (SAVANNA INGREDIENTS GMBH, priority 2020, published 2023)
